In brackets after ≈: the same amount, converted by molar mass. Like-named read-outs stand apart in the source and are kept apart here.
Key:
Assay in all cases: in vitro antibacterial activity, agar dilution method (MIC)
Type in all cases: cell-based
[1] = system: Escherichia Coli; conditions: Escherichia coli, BHI agar, 20-24 hours, read-out: MIC
Method: (§1) Compounds 1 to 8 were evaluated for antibacterial activity by the agar dilution method to determine the degree of in vitro susceptibility of aerobic microorganisms to antimicrobial agents. The test medium was Brain Heart Infusion (BHI) agar. The antibacterial agent was dissolved at a concentration of 2,000 ug/mL. Test plates were then prepared, usually 12 two-fold dilutions. After adding the sample to the plates, 10 mL of cooled BHI agar medium was added to each plate. The organisms were grown overnight in BHI broth (Difco) in a 35°-37° C. incubator.
(§2) On the day of testing, the bacterial suspensions were diluted 1:100 in sterile distilled water, except for a few slow-growing organisms (usually Micrococcus and Streptococcus) which were diluted 1:10. The plate was then inoculated with approximately 10^4 organisms. This was incubated in a 35°-37° C. incubator for 20-24 hours. Thereafter, the plates were read to determine the minimum inhibitory concentration (MIC) defined as the lowest concentration of drug yielding no growth on the plate, a slight haze, or sparsely isolated colonies on the inoculum spot as compared to the growth control.

[2] = system: Pseudomonas Cepacia; conditions: Burkholderia cepacia; strain 296I; BHI agar, 20-24 hours; read-out: MIC
Method: as §1, §2

[3] = system: Acinetobacter Sp; conditions: Acinetobacter, strain CMX 669; BHI agar, 20-24 hours; read-out: MIC
Method: (§3) The test medium was Brain Heart Infusion (BHI) agar. The antibacterial agent was dissolved at a concentration of 2,000 ug/mL. Test plates were then prepared, usually 12 two-fold dilutions. After adding the sample to the plates, 10 mL of cooled BHI agar medium was added to each plate. The organisms were grown overnight in BHI broth (Difco) in a 35°-37° C. incubator.
as §2

[4] = system: Klebsiella Pneumoniae; conditions: Klebsiella pneumoniae, ATCC8045, strain ATCC 8045; BHI agar, 20-24 hours; read-out: MIC
Method: as §3, §2

[5] = system: Micrococcus Luteus; conditions: Micrococcus luteus, BHI agar, 20-24 hours, read-out: MIC
Method: as §3, §2

[6] = system: Staphylococcus Epidermidis; conditions: Staphylococcus epidermidis, strain 3519; BHI agar, 20-24 hours; read-out: MIC
Method: as §3, §2

[7] = system: Staphylococcus Aureus; conditions: Staphylococcus aureus, BHI agar, 20-24 hours, read-out: MIC
Method: as §3, §2

[8] = system: Streptococcus Pyogenes; conditions: Streptococcus pyogenes, BHI agar, 20-24 hours, read-out: MIC
Method: as §3, §2

[9] = system: Enterococcus Faecium; conditions: Enterococcus faecium, ATCC8043, strain ATCC 8043; BHI agar, 20-24 hours; read-out: MIC
Method: as §3, §2

[10] = system: Streptococcus Bovis; conditions: Streptococcus equinus
Method: as §3, §2

[11] = system: Providencia Stuartii; conditions: Providencia stuartii; strain CMX 640; BHI agar, 20-24 hours; read-out: MIC
Method: as §3, §2

[12] = system: Streptococcus Agalactiae; conditions: Streptococcus agalactiae, strain CMX 508; BHI agar, 20-24 hours; read-out: MIC
Method: as §3, §2

[13] = system: Pseudomonas Aeruginosa; conditions: Pseudomonas aeruginosa, BHI agar, 20-24 hours, read-out: MIC
Method: as §3, §2

[14] = system: Enterobacter Aerogenes; conditions: Klebsiella aerogenes, ATCC13048, strain ATCC 13048; BHI agar, 20-24 hours; read-out: MIC
Method: as §3, §2

[15] = system: Haemophilus Influenzae; conditions: Haemophilus influenzae, BHI agar, 20-24 hours
Method: as §3, §2

CCC1OC(=O)CC(O)C(C)C(OC2OC(C)C(O)C(N(C)C)C2O)C(CC=O)CC(C)C(N(C)C)C=CC(C)=CC1COC(C)=O (stereo not shown) [Example 4, [9R]-23-O-Acetyl-9-deoxo-9-N,N-dimethylamino-5-O-mycaminosyl-tylonide]
MIC ([1]; strain DC-2): 25 µg/mL (≈ 37.4 µM)
MIC ([1]; strain H560): 12.5 µg/mL (≈ 18.7 µM)
MIC ([1]; strain JUHL): 50 µg/mL (≈ 74.8 µM)
MIC ([1]; strain KNK 437): 50 µg/mL (≈ 74.8 µM)
MIC ([1]; strain SS): 0.78 µg/mL (≈ 1.17 µM)
MIC [2]: > 100 µg/mL
MIC [3]: 6.2 µg/mL (≈ 9.27 µM)
MIC [4]: 50 µg/mL (≈ 74.8 µM)
MIC ([5]; ATCC4698, strain ATCC 4698): 0.39 µg/mL (≈ 0.583 µM)
MIC ([5]; ATCC9341, strain ATCC 9341): 0.2 µg/mL (≈ 0.299 µM)
MIC [6]: 0.78 µg/mL (≈ 1.17 µM)
MIC ([7]; ATCC6538P, strain ATCC 6538P): 0.78 µg/mL (≈ 1.17 µM)
MIC ([7]; NCTC10649, strain NCTC 10649): 0.78 µg/mL (≈ 1.17 µM)
MIC ([7]; strain 45): 0.78 µg/mL (≈ 1.17 µM)
MIC ([7]; strain 45 RAR2): 1.56 µg/mL (≈ 2.33 µM)
MIC ([7]; strain 642A): 1.56 µg/mL (≈ 2.33 µM)
MIC ([7]; strain A5177): 0.78 µg/mL (≈ 1.17 µM)
MIC ([7]; strain CMX 553): 1.56 µg/mL (≈ 2.33 µM)
MIC ([8]; strain 930 CONST): > 100 µg/mL
MIC ([8]; strain 2548 INDUC): 0.78 µg/mL (≈ 1.17 µM)
MIC ([8]; strain EES61): 0.1 µg/mL (≈ 0.15 µM)
MIC [9]: 0.39 µg/mL (≈ 0.583 µM)
MIC [10]: ≤ 0.02 µg/mL
MIC [11]: > 100 µg/mL
MIC [12]: 0.1 µg/mL (≈ 0.15 µM)
MIC ([13]; strain A5007): 100 µg/mL (≈ 150 µM)
MIC ([13]; strain BMH10): 100 µg/mL (≈ 150 µM)
MIC ([13]; strain K799/61): 3.1 µg/mL (≈ 4.63 µM)
MIC ([13]; strain K799/WT): 100 µg/mL (≈ 150 µM)
MIC [14]: 100 µg/mL (≈ 150 µM)
MIC ([15]; ATCC9795, strain ATCC 9795, read-out: MIC): 1 µg/mL (≈ 1.5 µM)
MIC ([15]; ATCC10211, strain ATCC 10211): 2 µg/mL (≈ 2.99 µM)
MIC ([15]; ATCC19418, strain ATCC 19418): 2 µg/mL (≈ 2.99 µM)
MIC ([15]; ATCC43095, strain ATCC 43095): 2 µg/mL (≈ 2.99 µM)
MIC ([15]; strain 503B): 2 µg/mL (≈ 2.99 µM)
MIC ([15]; strain 504, read-out: MIC): 0.25 µg/mL (≈ 0.374 µM)
MIC ([15]; strain 519A, read-out: MIC): 1 µg/mL (≈ 1.5 µM)
MIC ([15]; strain 566A, read-out: MIC): 1 µg/mL (≈ 1.5 µM)
MIC ([15]; strain 588A): 2 µg/mL (≈ 2.99 µM)
MIC ([15]; strain 747C): 2 µg/mL (≈ 2.99 µM)
MIC ([15]; strain 751, read-out: MIC): 8 µg/mL (≈ 12 µM)
MIC ([15]; strain 1177, read-out: MIC): 0.25 µg/mL (≈ 0.374 µM)
MIC ([15]; strain 1435, read-out: MIC): 1 µg/mL (≈ 1.5 µM)
MIC ([15]; strain DILL AMP R): 2 µg/mL (≈ 2.99 µM)
MIC ([15]; strain SOL AMP R): 2 µg/mL (≈ 2.99 µM)
MIC ([15]; strain SPK AMP R): 2 µg/mL (≈ 2.99 µM)
